Measured values reported in patent US10336712B2, “Compound for enhancing the coupling degree of complex TRPV4-KCa2.3 and anti-hypertension applications thereof” (Jiangnan University, priority 2017, dated 2019).

Legend:
[1] = system: three high blood pressure types of mice models; assay: Blood pressure in three high blood pressure types of mice models; type: in vivo, C57BL/6J mouse; settings: 1 mg/kg injected via the caudal veins; 8% high-salt, L-NAME and ANG-2 models; FIG. 5
Description: (§1) C57BL/6J Male mice, 8 weeks aged, are selected, and freely fed for one week. Then, the mice are classified into four groups, respectively 8% high-salt group, L-NAME group, ANG-2 group and reference group. The basic blood pressures of the four groups of mice are measured first to determine the base line of the blood pressure of the mice. The conditions of the reference group are not changed, and the blood pressure is measured every day. The high-salt group is fed with 8% high-salt feed, and then the blood pressure is measured every day. The L-name group is fed with 5% L-NAME solution, and then the blood pressure is measured every day. The ANG-2 group is injected with 4% chloral hydrate to perform anesthesia; then, the mice are respectively operated by implanting a pump on the back, wherein each pump is injected with 200 ul of 2.88 mg/ml ANG-2 solution; then, the mice are sutured and allowed to recover; after approximately 3 days, the measurement of the blood pressure begins, and then continues for about 4 weeks. […]
Experimental method: three high blood pressure types of mice models are constructed according to the method in Embodiment 4. After modeling succeeds, JNc-440 (1 mg/kg) is injected via the caudal veins, and then the blood pressure of the mice is measured and observed.

[2] = target: T1, endothelial cell ion channel complex TRPV4-KCa2.3 (Mus musculus, UniProt P58391+Q9EPK8); assay: FRET AB detection of coupling of TRPV4 and KCa2.3 in mesentery endothelial cells of hypertensive mice; type: cell-based, C57BL/6J mouse; settings: 10 μM, 96 h, endothelial cells of 8% high-salt, L-NAME and ANG-2 hypertensive mice; FIG. 4
T1 construct: The mesentery endothelial cells of the mice in the high blood pressure model are primarily isolated; endogenous in cells; host or cells: primary mesenteric endothelial cells of hypertensive C57BL/6J mice (high-salt, L-NAME, ANG-2 models)
Description: as §1
The mesentery endothelial cells of the mice in the high blood pressure model are primarily isolated and incubated in a constant-temperature cell incubator. […] Then, the coupling of the two proteins before and after the mutation is detected using the laser scanning confocal microscope in the FRET AB mode.

[3] = target: T2, protein TRPV4 (structural domain AR2) (Mus musculus, UniProt Q9EPK8); assay: Streptavidin magnetic bead pull-down of biotinylated JNc-440 from endothelial cell protein, Western blot detection; type: binding, C57BL/6 J mouse; settings: FIG. 3
T2 construct: RIPA Lysis is carried out to obtain cellular protein; endogenous in cells; host or cells: primary mesenteric endothelial cells of C57BL/6J mouse
Description: (§2) The endothelial cells of C57BL/6 J mouse mesentery are primarily isolated, and then incubated in a constant-temperature cell incubator. Biotinylated JNc-440 (10 μM/L) is added or oligopeptide and biotinylated JNc-440 (10 μM/L) are added into the incubator to jointly incubated with the cells for 96 h. RIPA Lysis is carried out to obtain cellular protein. The protein supernatant is added with 10 μL streptavidin magnetic beads, and the mixture is incubated at a temperature of 4° C. for a whole night. Suspension generated after the incubation is absorbed using a magnetic stand to obtain an avidin magnetic bead-biotinylated JNc-440-protein complex. The complex is suspended with 50 μL of 1× Loading buffer, and boiled for 5 min in a boiling bath. Samples are separated through SDS-PAGE. Proteins are transferred onto a PVDF membrane. The PVDF membrane with the proteins are confined in 5% BSA for 4 h at room temperature, then incubated with a primary antibody at a temperature of 4° C. for a whole night, and next incubated with a secondary antibody for 2 h at room temperature. ECL color developing agent is added. A protein imaging system is used to detect and analyze the obtained product.

[4] = target: T3, protein KCa2.3 (structural domain 17C) (Mus musculus, UniProt P58391); assay: as above; type: binding, C57BL/6 J mouse; settings: FIG. 3
T3 construct: RIPA Lysis is carried out to obtain cellular protein; endogenous in cells; host or cells: primary mesenteric endothelial cells of C57BL/6J mouse
Description: as §2

[5] = 10 μM/L, incubated 96 h with primary mouse mesentery endothelial cells

T2 sequence (Q9EPK8 whole entry, the tested form may be a part): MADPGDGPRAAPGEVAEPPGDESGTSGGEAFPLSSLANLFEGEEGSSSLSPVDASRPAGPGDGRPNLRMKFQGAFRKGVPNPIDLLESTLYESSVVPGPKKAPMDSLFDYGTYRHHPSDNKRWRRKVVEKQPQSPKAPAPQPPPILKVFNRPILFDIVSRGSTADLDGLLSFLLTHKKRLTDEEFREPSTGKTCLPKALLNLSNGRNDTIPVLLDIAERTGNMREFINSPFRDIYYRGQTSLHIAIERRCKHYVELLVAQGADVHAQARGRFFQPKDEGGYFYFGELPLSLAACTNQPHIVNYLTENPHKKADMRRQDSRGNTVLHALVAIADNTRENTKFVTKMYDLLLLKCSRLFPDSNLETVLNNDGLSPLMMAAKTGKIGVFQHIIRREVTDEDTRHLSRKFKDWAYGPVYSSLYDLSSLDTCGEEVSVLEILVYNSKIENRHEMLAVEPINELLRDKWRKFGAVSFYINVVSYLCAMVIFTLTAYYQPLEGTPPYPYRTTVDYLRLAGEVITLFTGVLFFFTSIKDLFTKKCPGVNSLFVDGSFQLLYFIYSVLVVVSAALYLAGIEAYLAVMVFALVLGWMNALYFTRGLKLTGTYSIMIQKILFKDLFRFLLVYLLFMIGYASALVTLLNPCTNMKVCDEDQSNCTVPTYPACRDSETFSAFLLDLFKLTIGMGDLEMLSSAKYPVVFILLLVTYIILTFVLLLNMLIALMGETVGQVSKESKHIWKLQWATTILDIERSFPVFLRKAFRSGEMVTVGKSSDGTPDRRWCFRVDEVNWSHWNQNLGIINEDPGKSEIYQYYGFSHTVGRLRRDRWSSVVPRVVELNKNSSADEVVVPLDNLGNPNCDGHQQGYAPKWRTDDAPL

| Compound | blood pressure of the mice [1] | space coupling degree of the proteins TRPV4 and KCa2.3 (FRET) [2] | capability of binding with the protein TRPV4 after the oligopeptide AR2 is added ([3]; 10 μM/L plus oligopeptide AR2, 96 h) | binding with the protein TRPV4 [3, 5] | capability of binding with the protein KCa2.3 after the oligopeptide 17C is added ([4]; 10 μM/L plus oligopeptide 17C, 96 h, compared with the reference control) | binding with the protein KCa2.3 [4, 5] |
| --- | --- | --- | --- | --- | --- | --- |
| O=C(NCCCNC(=O)C(c1ccccc1)c1ccccc1)c1nc(=O)c2ccccc2[nH]1 [JNc-440] | drops obviously | increased obviously |  |  |  |  |
| O=C1NC2CSC(CCCCC(=O)OCCCCCNc3nc(C(=O)NCCCNC(=O)C(c4ccccc4)c4ccccc4)nc4ccccc34)C2N1 (stereo not drawn) [biotinylated JNc-440] |  |  | obviously reduced | can be bound | obviously reduced | can be bound |
